Test results: publication PMC4491418, “Characterisation of Dermanyssus gallinae glutathione S-transferases and their potential as acaricide detoxification proteins” (Parasites & Vectors, 2015)

Assays:
Assay type in all cases: biochemical
rDeg-GST-3 [1] = biological target: T1, rDeg-GST-3 (Dermanyssus gallinae, UniProt A0A0H4FPP8); experiment: inhibition of GSH-CDNB conjugation, A340nm; settings: 100 µM; 1 mM CDNB, 2 mM GSH, pH 6.5 substrate buffer; 10 min preincubation at RT; mode not determined
T1 construct: full-length CDS (669 bp ORF, 222 aa) in pETSUMO; N-terminal His-tag and SUMO fusion kept; E. coli BL21-CodonPlus(DE3)-RIL; HisTrap purified
T1 sequence (A0A0H4FPP8 1-222): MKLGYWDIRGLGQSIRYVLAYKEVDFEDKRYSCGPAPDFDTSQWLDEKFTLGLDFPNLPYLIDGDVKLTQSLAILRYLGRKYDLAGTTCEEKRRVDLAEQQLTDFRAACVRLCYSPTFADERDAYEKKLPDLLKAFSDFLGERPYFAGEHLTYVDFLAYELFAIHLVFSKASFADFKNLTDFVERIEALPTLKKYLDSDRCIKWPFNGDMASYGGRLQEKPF
Source text: inhibition of GSH-CDNB conjugation, A340nm on rDeg-GST-3

rDeg-GST-1 [2] = biological target: T2, rDeg-GST-1 (Dermanyssus gallinae, UniProt A0A0H4FNI7); experiment: inhibition of GSH-CDNB conjugation, A340nm; settings: 100 µM; 1 mM CDNB, 2 mM GSH, pH 6.5 substrate buffer; 10 min preincubation at RT; mode not determined
T2 construct: full-length CDS (735 bp ORF, 244 aa) in pETSUMO; N-terminal His-tag and SUMO fusion kept; E. coli BL21-CodonPlus(DE3)-RIL; HisTrap purified
T2 sequence (A0A0H4FNI7 1-244): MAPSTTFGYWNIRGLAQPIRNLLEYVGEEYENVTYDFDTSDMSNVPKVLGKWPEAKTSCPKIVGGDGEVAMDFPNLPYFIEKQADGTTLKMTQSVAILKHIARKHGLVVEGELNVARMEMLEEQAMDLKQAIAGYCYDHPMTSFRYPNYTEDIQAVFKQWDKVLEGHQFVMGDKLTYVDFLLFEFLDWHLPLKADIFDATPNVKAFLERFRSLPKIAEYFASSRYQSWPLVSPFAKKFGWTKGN
Source text: inhibition of GSH-CDNB conjugation, A340nm on rDeg-GST-1

rDeg-GST-2 [3] = biological target: T3, rDeg-GST-2 (Dermanyssus gallinae, UniProt A0A0H4FKJ9); experiment: inhibition of GSH-CDNB conjugation, A340nm; settings: 100 µM; 1 mM CDNB, 2 mM GSH, pH 6.5 substrate buffer; 10 min preincubation at RT; mode not determined
T3 construct: full-length CDS (633 bp ORF, 210 aa) in pETSUMO; N-terminal His-tag and SUMO fusion kept; E. coli BL21-CodonPlus(DE3)-RIL; HisTrap purified
T3 sequence (A0A0H4FKJ9 1-210): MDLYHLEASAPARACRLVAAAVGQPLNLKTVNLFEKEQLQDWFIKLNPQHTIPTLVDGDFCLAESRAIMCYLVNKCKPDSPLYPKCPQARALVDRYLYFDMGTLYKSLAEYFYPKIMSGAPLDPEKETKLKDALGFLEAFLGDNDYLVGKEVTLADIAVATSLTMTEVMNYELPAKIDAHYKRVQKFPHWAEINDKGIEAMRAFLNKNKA
Source text: inhibition of GSH-CDNB conjugation, A340nm on rDeg-GST-2

rDeg-GST-3 [4] = biological target: T1, rDeg-GST-3; experiment: GSH-CDNB conjugation, A340nm; settings: 0-1 mM CDNB, 2 mM GSH, pH 6.5
rDeg-GST-1 [5] = biological target: T2, rDeg-GST-1; experiment: GSH-CDNB conjugation, A340nm; settings: 0-1 mM CDNB, 2 mM GSH, pH 6.5
rDeg-GST-2 [6] = biological target: T3, rDeg-GST-2; experiment: GSH-CDNB conjugation, A340nm; settings: 0-1 mM CDNB, 2 mM GSH, pH 6.5

Row | Structure (SMILES) | % reduction in Deg-GST activity ± SEM / rDeg-GST-3 (1.5 μg GST/well) (rDeg-GST-3 [1]) [%] | % reduction in Deg-GST activity ± SEM / rDeg-GST-1 (0.3 μg GST/well) (rDeg-GST-1 [2]) [%] | % reduction in Deg-GST activity ± SEM / rDeg-GST-2 (1.5 μg GST/well) (rDeg-GST-2 [3]) [%] | GSH-CDNB conjugation, A340nm (rDeg-GST-3 [4]) | GSH-CDNB conjugation, A340nm (rDeg-GST-1 [5]) | GSH-CDNB conjugation, A340nm (rDeg-GST-2 [6])
1 | CCOP(=S)(OCC)ON=C(C#N)c1ccccc1 [Phoxim] | 20.56 ± 2.5 | 56.38 ± 3.0 | 14.8 ± 1.5 |  |  | 
2 | O=[N+]([O-])c1ccc(Cl)c([N+](=O)[O-])c1 [1-chloro-2,4-dinitrobenzene] |  |  |  | All three rDeg-GSTs were enzymically-active molecules capable of catalyzing the conjugation of GSH to CDNB | All three rDeg-GSTs were enzymically-active molecules capable of catalyzing the conjugation of GSH to CDNB | All three rDeg-GSTs were enzymically-active molecules capable of catalyzing the conjugation of GSH to CDNB
3 | CC1(C)C(C=C(Cl)Cl)C1C(=O)OCc1cccc(Oc2ccccc2)c1 (stereo not shown) [Permethrin] |  | 35.39 ± 0.9 |  |  |  | 
